Experiments:
[1] = test system: histone H3 acetylation (acH3K9) in undifferentiated SH-SY5Y cells; assay: Histone H3 acetylation in cells (Western immunoblot); type: cell-based; conditions: Homo sapiens, 4 hours, acetyl histone H3K9/histone H3 ratio
Method: (§1) Compound EC50 Determination for Tubulin- and Histone H3 Acetylation in Cells
(§2) Estimation of the EC50 for exemplary compounds to alter target protein acetylation in undifferentiated SH-SY5Y cells was performed using standard Western immunoblotting methods. […] SH-SY5Y cells were grown to 90% confluency on sterile cell growth plates. 10 mM compound stocks prepared in DMSO and two-fold serial dilutions were prepared from the stock and applied to cells to achieve a 12-point concentration range in cell media from an upper limit of 10 μM to a lower limit of DMSO [zero compound].
(§3) Cells were incubated under normal growth conditions (37° C., 5% CO2) in the presence of compound for 4 hours, then media was aspirated and cells were rinsed two times with 1×DPBS with calcium and magnesium warmed to 37° C. Cells were frozen directly on the plates on a bed of dry ice for 5 min, then stored at −80° C. until protein extraction.
(§4) Protein extraction was performed in RIPA buffer (50 mM Tris-HCL pH 8.0, 150 mM NaCl, 0.5% sodium deoxycholate, 0.1% sodium dodecyl sulfate, 1% NP-40) supplemented with Pierce protease inhibitor mini tables (Thermofisher cat #A32953) exactly as described by the manufacturer. After thawing the plate on a bed of wet ice for 10 minutes, lysis buffer was added to each well (e.g. 100 μL per well of a 24-well plate) and cells scraped from the bottom of each well. Lysates were then sonicated over ice (40% power, 30 pulses of 1 second on, 2 seconds off), centrifuged at 16,000 g for 10 min at 4° C., and the clarified supernatant saved. Protein concentration was determined by BCA assay and at least 3 μg prepared per lane by combining lysate supernatant aliquot with 1/3 total volume of 3× gel loading buffer containing DTT (NEB Cat. #B7703S), heating for 5 minutes at 95° C., briefly centrifuging and then loading on an SDS-PAGE gel.
(§5) Proteins were resolved on a 4-20% Tris-Glycine gel and transferred to PVDF membrane using an iBlot2 dry transfer system. The membrane was then blocked for at least 30 minutes at room temperature in TBST containing 5% milk or 5% bovine serum albumin, then incubated overnight at 4° C. with a single primary antibody from the following table:
(§6) Following primary antibody incubation, membranes were washed, incubated in secondary antibody, washed and incubated in ECL prime western blotting detection reagent (Amersham #RPN223) with membrane exposure and ECL signal capture in a LI-COR Odyssey Imaging system. […] Subsequent densitometry of immunoreactive bands was performed using the ImageStudio software and Microsoft Excel resulting in the following ratios: acetylTubulin/Tubulin and acetyl histone H3K9/histone H3. Raw ratios were uploaded to GraphPad Prism v7.0 with EC50 values modeled using the variable slope equation for log-transformed data [log(agonist) vs response in Prism].

[2] = molecular target: Human HDAC4 aa 101-1084(end) (Homo sapiens, UniProt P56524)
Full length Human HDAC5 = Full length Human HDAC5 (Homo sapiens, UniProt Q9UQL6)
Full length Human HDAC2 = Full length Human HDAC2 (Homo sapiens, UniProt Q92769)
Full length Human HDAC1 = Full length Human HDAC1 (Homo sapiens, UniProt Q13547)
[3] = molecular target: Human HDAC9 a.a. 604-1066 (Homo sapiens, UniProt Q9UKV0)
[4] = molecular target: Full length Human HDAC3 co-expressed with Human NCOR2 (Homo sapiens, UniProt O15379)
[5] = test system: tubulin acetylation (acTubK40) in undifferentiated SH-SY5Y cells; assay: Tubulin acetylation in cells (Western immunoblot); type: cell-based; conditions: Homo sapiens, 4 hours, acetylTubulin/Tubulin ratio
Method: as §1, §2, §3, §4, §5, §6

Full length Human HDAC11 = molecular target: T1, Full length Human HDAC11 (Homo sapiens, UniProt Q96DB2)
T1 sequence (Q96DB2 1-347): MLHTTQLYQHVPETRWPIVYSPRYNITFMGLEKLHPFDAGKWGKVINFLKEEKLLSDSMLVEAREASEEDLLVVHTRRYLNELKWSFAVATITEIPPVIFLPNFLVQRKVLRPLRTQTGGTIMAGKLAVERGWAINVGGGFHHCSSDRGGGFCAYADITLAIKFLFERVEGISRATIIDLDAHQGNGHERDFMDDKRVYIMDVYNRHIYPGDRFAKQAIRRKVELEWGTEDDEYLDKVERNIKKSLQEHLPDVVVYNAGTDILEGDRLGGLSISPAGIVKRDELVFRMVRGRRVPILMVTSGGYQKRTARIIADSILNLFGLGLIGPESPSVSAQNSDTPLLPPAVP

Chain of Full length Human HDAC5 (Q9UQL6 whole entry): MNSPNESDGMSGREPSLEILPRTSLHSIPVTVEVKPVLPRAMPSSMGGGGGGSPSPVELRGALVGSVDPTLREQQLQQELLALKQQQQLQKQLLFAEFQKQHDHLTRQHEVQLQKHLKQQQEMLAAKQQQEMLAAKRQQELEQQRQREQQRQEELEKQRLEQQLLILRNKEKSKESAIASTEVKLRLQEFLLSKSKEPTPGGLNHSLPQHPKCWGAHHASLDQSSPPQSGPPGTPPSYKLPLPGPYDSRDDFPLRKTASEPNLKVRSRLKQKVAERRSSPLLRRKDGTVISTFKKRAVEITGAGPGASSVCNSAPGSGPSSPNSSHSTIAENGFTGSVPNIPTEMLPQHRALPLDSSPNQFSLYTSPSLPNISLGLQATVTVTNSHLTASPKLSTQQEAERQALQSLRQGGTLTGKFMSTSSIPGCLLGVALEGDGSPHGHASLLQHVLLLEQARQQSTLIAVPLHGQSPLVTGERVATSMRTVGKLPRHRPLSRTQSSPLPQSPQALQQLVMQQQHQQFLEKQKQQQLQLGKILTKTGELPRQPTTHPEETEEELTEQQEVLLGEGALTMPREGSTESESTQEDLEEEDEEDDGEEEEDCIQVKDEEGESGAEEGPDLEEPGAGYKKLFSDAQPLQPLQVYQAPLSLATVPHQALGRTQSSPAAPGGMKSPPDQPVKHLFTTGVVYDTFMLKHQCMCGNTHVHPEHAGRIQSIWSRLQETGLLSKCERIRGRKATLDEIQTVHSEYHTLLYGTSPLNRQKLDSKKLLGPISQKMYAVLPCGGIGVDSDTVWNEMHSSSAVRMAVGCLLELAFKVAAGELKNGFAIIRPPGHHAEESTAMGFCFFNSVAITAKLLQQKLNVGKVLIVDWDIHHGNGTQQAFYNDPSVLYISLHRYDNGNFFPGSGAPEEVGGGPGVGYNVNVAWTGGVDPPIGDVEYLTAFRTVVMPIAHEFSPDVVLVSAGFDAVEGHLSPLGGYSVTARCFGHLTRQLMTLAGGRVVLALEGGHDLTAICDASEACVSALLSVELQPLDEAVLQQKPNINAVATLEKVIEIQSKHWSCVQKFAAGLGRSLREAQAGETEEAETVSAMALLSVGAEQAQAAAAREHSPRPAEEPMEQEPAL
Chain of Full length Human HDAC3 co-expressed with Human NCOR2 (O15379 whole entry): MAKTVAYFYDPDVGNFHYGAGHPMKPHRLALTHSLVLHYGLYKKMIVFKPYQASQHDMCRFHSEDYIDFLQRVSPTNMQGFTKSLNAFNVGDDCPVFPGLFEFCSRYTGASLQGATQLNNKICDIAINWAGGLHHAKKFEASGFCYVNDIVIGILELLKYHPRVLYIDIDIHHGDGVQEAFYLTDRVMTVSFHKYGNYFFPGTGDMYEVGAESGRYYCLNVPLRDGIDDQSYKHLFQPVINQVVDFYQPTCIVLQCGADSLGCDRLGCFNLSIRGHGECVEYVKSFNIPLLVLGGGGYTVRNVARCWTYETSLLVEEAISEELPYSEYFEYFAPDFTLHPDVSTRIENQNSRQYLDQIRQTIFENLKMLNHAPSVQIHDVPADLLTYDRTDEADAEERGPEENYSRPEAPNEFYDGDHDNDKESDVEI
Chain of Full length Human HDAC3 co-expressed with Human NCOR2 (Q9Y618 395-489 partner limits assumed): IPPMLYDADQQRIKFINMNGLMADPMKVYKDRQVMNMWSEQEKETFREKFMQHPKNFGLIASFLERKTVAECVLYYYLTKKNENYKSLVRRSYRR
Chain of Human HDAC9 a.a. 604-1066 (Q9UKV0 604-1066 isoform Q9UKV0-5): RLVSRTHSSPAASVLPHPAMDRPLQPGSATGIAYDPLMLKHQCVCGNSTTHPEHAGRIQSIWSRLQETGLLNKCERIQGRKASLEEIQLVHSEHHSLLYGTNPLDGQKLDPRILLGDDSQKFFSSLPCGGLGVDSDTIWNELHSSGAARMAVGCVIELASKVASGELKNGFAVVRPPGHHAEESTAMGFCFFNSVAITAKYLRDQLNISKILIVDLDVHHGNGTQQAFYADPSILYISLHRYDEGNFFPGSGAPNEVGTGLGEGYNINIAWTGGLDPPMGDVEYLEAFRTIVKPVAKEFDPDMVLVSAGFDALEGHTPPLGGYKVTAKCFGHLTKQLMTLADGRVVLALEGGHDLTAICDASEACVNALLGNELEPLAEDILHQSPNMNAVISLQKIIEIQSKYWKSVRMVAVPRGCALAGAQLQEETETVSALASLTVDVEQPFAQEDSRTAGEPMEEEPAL
Chain of Full length Human HDAC2 (Q92769 whole entry): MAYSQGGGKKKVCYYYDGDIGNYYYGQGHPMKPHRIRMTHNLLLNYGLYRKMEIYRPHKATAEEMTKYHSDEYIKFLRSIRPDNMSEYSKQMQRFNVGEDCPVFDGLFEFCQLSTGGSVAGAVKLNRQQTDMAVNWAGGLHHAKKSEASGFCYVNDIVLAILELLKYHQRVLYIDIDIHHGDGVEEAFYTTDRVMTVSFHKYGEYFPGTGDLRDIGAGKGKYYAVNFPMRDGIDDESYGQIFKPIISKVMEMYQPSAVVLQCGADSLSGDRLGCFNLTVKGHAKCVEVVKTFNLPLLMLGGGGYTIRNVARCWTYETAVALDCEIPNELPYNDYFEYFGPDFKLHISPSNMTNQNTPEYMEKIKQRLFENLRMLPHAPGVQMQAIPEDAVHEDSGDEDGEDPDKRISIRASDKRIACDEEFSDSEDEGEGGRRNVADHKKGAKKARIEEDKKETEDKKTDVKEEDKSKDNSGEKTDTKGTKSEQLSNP
Chain of Human HDAC4 aa 101-1084(end) (P56524 101-1084): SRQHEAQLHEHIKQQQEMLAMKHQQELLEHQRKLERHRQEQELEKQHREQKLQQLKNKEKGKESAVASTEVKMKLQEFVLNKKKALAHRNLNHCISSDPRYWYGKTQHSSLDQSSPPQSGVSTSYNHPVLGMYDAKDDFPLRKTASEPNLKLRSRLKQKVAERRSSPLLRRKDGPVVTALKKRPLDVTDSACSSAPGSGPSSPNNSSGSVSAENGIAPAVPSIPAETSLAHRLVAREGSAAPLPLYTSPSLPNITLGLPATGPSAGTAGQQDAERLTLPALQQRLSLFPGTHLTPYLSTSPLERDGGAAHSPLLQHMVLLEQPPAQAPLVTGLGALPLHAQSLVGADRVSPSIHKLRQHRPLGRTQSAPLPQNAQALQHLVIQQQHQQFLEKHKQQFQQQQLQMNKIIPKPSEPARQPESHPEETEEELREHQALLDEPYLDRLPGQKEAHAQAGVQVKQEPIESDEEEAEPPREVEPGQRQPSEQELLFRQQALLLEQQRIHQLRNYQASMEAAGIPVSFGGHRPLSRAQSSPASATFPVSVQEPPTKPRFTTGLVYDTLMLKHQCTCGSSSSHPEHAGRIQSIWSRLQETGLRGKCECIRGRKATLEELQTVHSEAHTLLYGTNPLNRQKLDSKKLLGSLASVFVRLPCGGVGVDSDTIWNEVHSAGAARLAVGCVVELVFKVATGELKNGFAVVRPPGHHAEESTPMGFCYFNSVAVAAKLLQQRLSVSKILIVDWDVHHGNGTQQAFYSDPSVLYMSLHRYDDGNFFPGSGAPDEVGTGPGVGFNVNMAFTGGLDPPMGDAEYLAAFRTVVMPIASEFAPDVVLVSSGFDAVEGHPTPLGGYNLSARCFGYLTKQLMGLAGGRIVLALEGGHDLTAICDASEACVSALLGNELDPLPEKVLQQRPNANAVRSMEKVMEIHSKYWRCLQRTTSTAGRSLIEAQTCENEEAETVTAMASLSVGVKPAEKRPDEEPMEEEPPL
Chain of Full length Human HDAC1 (Q13547 whole entry): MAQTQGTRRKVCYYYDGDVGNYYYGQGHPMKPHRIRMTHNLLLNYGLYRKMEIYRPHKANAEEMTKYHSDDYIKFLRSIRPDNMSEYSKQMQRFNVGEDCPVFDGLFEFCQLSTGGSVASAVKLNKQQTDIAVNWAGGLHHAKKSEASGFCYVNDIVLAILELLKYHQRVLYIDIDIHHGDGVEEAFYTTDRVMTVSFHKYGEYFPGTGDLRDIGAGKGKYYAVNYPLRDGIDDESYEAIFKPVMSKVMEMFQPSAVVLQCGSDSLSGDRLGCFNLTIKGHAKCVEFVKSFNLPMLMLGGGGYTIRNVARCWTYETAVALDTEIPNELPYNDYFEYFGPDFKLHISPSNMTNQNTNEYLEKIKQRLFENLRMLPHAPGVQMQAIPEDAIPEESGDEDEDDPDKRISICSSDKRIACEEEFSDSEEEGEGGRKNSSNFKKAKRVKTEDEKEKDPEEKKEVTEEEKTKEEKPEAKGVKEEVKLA

Compound: O=C(NO)c1ccc(CN2CC3CCC2CO3)c(F)c1 (stereo not drawn) [compound 58]
- EC50 [1]: 2.5 µM
- IC50 [2]: 1 to 10 µM
- IC50 (Full length Human HDAC5): 1 to 10 µM
- IC50 (Full length Human HDAC2): 10 to 100 µM
- IC50 (Full length Human HDAC1): 10 to 100 µM
- IC50 [3]: 1 to 10 µM
- IC50 [4]: 1 to 10 µM
- EC50 [5]: 2.6 µM
- IC50 (Full length Human HDAC11): > 100 µM

Compound: O=C(NO)c1ccc(CN2CC3CCC(C2)O3)c(F)c1 [compound 53]
- EC50 [1]: > 10 µM
- IC50 [2]: 1 to 10 µM
- IC50 (Full length Human HDAC5): 1 to 10 µM
- IC50 (Full length Human HDAC2): 10 to 100 µM
- IC50 (Full length Human HDAC1): 1 to 10 µM
- IC50 [3]: 0.1 to 1 µM
- IC50 [4]: 1 to 10 µM
- EC50 [5]: 0.2 µM
- IC50 (Full length Human HDAC11): 10 to 100 µM

Compound: O=C(NO)c1cc(F)c2c(c1)CCN(Cc1ccccc1)C2 [compound 32]
- EC50 [1]: > 10 µM
- EC50 [5]: 0.3 µM

Compound: O=C(NO)c1cc(F)c2c(c1)C[C@H]1CCCCN1C2 (single isomer, unassigned) [compound 94]
- IC50 [2]: 10 to 100 µM
- IC50 (Full length Human HDAC5): 10 to 100 µM
- IC50 (Full length Human HDAC2): > 100 µM
- IC50 (Full length Human HDAC1): > 100 µM
- IC50 [3]: 1 to 10 µM
- IC50 [4]: 10 to 100 µM
- IC50 (Full length Human HDAC11): > 100 µM

Compound: O=C(NO)c1cc(F)c2c(c1)C[C@@H]1CCCCN1C2 (single isomer, unassigned) [compound 93]
- IC50 [2]: 1 to 10 µM
- IC50 (Full length Human HDAC5): 1 to 10 µM
- IC50 (Full length Human HDAC2): 10 to 100 µM
- IC50 (Full length Human HDAC1): 10 to 100 µM
- IC50 [3]: 1 to 10 µM
- IC50 [4]: 1 to 10 µM
- IC50 (Full length Human HDAC11): 1 to 10 µM

Compound: O=C(NO)c1cc(F)c2c(c1)CCN(C1CC3(CCCCC3)C1)C2 [compound 16]
- EC50 [1]: > 10 µM
- IC50 [2]: 10 to 100 µM
- IC50 (Full length Human HDAC5): > 100 µM
- IC50 (Full length Human HDAC2): 10 to 100 µM
- IC50 (Full length Human HDAC1): 10 to 100 µM
- IC50 [3]: > 100 µM
- IC50 [4]: 10 to 100 µM
- EC50 [5]: 2.9 µM
- IC50 (Full length Human HDAC11): 1 to 10 µM

Compound: O=C(NO)c1cc(F)c2c(c1)CCN(CC13CC4CC(CC(C4)C1)C3)C2 [compound 34]
- EC50 [1]: > 10 µM
- IC50 [2]: 10 to 100 µM
- IC50 (Full length Human HDAC5): 10 to 100 µM
- IC50 (Full length Human HDAC2): 10 to 100 µM
- IC50 (Full length Human HDAC1): 10 to 100 µM
- IC50 [3]: 10 to 100 µM
- IC50 [4]: 1 to 10 µM
- EC50 [5]: 2.1 µM
- IC50 (Full length Human HDAC11): 1 to 10 µM

Compound: O=C(NO)c1cc(F)c2c(c1)CCN1CCC[C@@H]21 (single isomer, unassigned) [compound 79]
- EC50 [1]: > 10 µM
- IC50 [2]: 1 to 10 µM
- IC50 (Full length Human HDAC5): 1 to 10 µM
- IC50 (Full length Human HDAC2): 10 to 100 µM
- IC50 (Full length Human HDAC1): 1 to 10 µM
- IC50 [3]: 0.1 to 1 µM
- IC50 [4]: 1 to 10 µM
- EC50 [5]: 0.44 µM
- IC50 (Full length Human HDAC11): > 100 µM

Compound: O=C(NO)c1ccc2c(c1)CN1CCCCN1C2 [compound 106, N-hydroxy-1,2,3,4,6,11-hexahydropyridazino[1,2-b]phthalazine-8-carboxamide]
- IC50 [2]: 10 to 100 µM
- IC50 (Full length Human HDAC5): > 100 µM
- IC50 (Full length Human HDAC2): 10 to 100 µM
- IC50 (Full length Human HDAC1): 10 to 100 µM
- IC50 [3]: 10 to 100 µM
- IC50 [4]: 1 to 10 µM
- IC50 (Full length Human HDAC11): 10 to 100 µM

Compound: O=C(NO)c1ccc(CN2CCC3(CCCCC3)C2)c(F)c1 [compound 75, 4-((2-Azaspiro[4.5]decan-2-yl)methyl)-3-fluoro-N-hydroxybenzamide]
- EC50 [1]: > 10 µM
- EC50 [5]: 1.4 µM

Compound: O=C(NO)c1ccc(CN2C[C@H]3CC[C@@H]2CO3)c(F)c1 (single isomer, unassigned) [compound 173]
- IC50 [2]: 1 to 10 µM
- IC50 (Full length Human HDAC5): 10 to 100 µM
- IC50 (Full length Human HDAC2): 10 to 100 µM
- IC50 (Full length Human HDAC1): 10 to 100 µM
- IC50 [3]: 1 to 10 µM
- IC50 [4]: 1 to 10 µM
- IC50 (Full length Human HDAC11): 10 to 100 µM

Compound: O=C(NO)c1ccc(CN2C[C@@H]3CC[C@H]2CO3)c(F)c1 (single isomer, unassigned) [compound 172]
- IC50 [2]: 10 to 100 µM
- IC50 (Full length Human HDAC5): 10 to 100 µM
- IC50 (Full length Human HDAC2): > 100 µM
- IC50 (Full length Human HDAC1): > 100 µM
- IC50 [3]: 10 to 100 µM
- IC50 [4]: 10 to 100 µM
- IC50 (Full length Human HDAC11): 0.001 to 0.1 µM

— patent US12528767B2, “HDAC6 inhibitors and uses thereof” (Eikonizo Therapeutics, Inc., priority 2019, dated 2026)
